# Assays:
# morningglory = assay: Test A pre-/postemergence herbicide test; format: in vivo, Ipomoea spp.
# Summary of the method: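 Visual injury scores on a 0–100 scale (100 = complete control) taken about ten days post-treatment in greenhouse against untreated controls; dash means no result. Treatments: preemergence soil spray and postemergence spray to runoff on one- to two-leaf plants 2 to 10 cm tall, surfactant-containing formulation.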
# pigweed [1] = assay: Test B pre-/postemergence herbicide test; format: in vivo, Amaranthus retroflexus; conditions: for Pigweed plant response rating: postemergence, visual rating
# Summary of the method: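 Plants compared with untreated controls 13–15 days post-treatment and given a visual 0–100 injury score. Applications: preemergence to seeds; postemergence at 1- to 4-leaf (2–18 cm); paddy species flooded, 2-leaf stage. Vehicle non-phytotoxic, surfactant included.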
# wild oat = assay: Test B postemergence herbicide test; format: in vivo, Avena fatua; conditions: scale 0 (no effect) to 100 (complete control); for Plant response rating, Oat, Wild: Postemergence, 500 g ai/ha, visual rating after 13 to 15 days; for Oat, Wild plant response rating: postemergence, 125 g ai/ha, visual rating
# Summary of the method: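 Plants grow to 1- to 4-leaf stage (2–18 cm) for postemergence spraying, or to 2-leaf stage for the paddy test. Formulated compound is applied. Greenhouse holding lasts 13–15 days. Response is scored visually relative to controls, 0 no effect to 100 complete control; a dash means no result.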
# large crabgrass = assay: Test C pre-/postemergence herbicide test; format: in vivo, Digitaria sanguinalis; conditions: for Crabgrass, Large plant response rating: 500 g ai/ha
# Summary of the method: (§1)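 Visual ratings on a 0–100 scale (100 = complete control) made versus untreated controls after 12 to 14 greenhouse days. Test chemicals, formulated in surfactant-containing non-phytotoxic solvent, applied preemergence to planted seeds or postemergence to 1- to 4-leaf plants (2 to 18 cm).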
# goosegrass = assay: Test C pre-/postemergence herbicide test; format: in vivo, Eleusine indica; conditions: for Goosegrass plant response rating: 500 g ai/ha
# Summary of the method: as §1
# kochia = assay: Test C pre-/postemergence herbicide test; format: in vivo, Kochia scoparia; conditions: for Kochia plant response rating: 500 g ai/ha
# Summary of the method: as §1
# lambsquarters = assay: Test C pre-/postemergence herbicide test; format: in vivo, Chenopodium album; conditions: for Lambsquarters plant response rating: 500 g ai/ha
# Summary of the method: as §1
# pigweed [2] = assay: Test C pre-/postemergence herbicide test; format: in vivo, Amaranthus retroflexus; conditions: for Pigweed plant response rating: 500 g ai/ha
# Summary of the method: as §1
# common ragweed = assay: Test C pre-/postemergence herbicide test; format: in vivo, Ambrosia elatior; set-up: key to Plant response rating, Ragweed: 0 = no effect, 100 = complete control; conditions: for Ragweed plant response rating: 500 g ai/ha
# Summary of the method: as §1
# [3] = Postemergence, 500 g ai/ha, 0 to 100 scale, 0 no effect, 100 complete control
# [4] = Postemergence, 2000 g ai/ha, 0 to 100 scale, 0 no effect, 100 complete control
# [5] = Preemergence, 500 g ai/ha, visual rating, 0 to 100 scale (0 no effect, 100 complete control)
# [6] = Preemergence, 2000 g ai/ha, visual rating, 0 to 100 scale (0 no effect, 100 complete control)
# [7] = 500 g ai/ha, visual rating 0-100, 0 no effect, 100 complete control, preemergence
# [8] = Postemergence, 500 g ai/ha, visual rating after 13 to 15 days, scale 0 (no effect) to 100 (complete control)
# [9] = 125 g ai/ha, scale 0 (no effect) to 100 (complete control)
# [10] = preemergence, 125 g ai/ha, 0 to 100 scale, 0 is no effect, 100 is complete control
# [11] = 125 g ai/ha, scale 0 (no effect) to 100 (complete control), visual, 12 to 14 days, preemergence
# [12] = Postemergence, 250 g ai/ha, scale 0 to 100, 0 no effect, 100 complete control
# [13] = Preemergence, scale 0 to 100, 0 no effect, 100 complete control
# [14] = postemergence, 125 g ai/ha, scale 0 to 100
# [15] = postemergence, 62 g ai/ha, scale 0 to 100
smiles,measurement,setting,value
CCn1nc(C(C)(C)C)cc1C(=O)Nc1cccc(C(C)=NO)c1 [Compound 108],Morningglory plant response rating,morningglory; [3],40
same,"Plant response rating, Morningglory",morningglory; [4],40
same,Morningglory plant response rating,morningglory; [5],30
same,Morningglory plant response rating,morningglory; [6],75
same,"Plant response rating, Pigweed",pigweed [1]; [7],100
same,"Plant response rating, Pigweed",pigweed [1]; [8],100
same,Pigweed plant response rating,pigweed [1]; [9],80
same,"Plant response rating, Pigweed",pigweed [1]; [10],90
same,"Plant response rating, Oat, Wild",wild oat,50
same,"Oat, Wild plant response rating",wild oat,20
same,"Plant response rating (0 = no effect, 100 = complete control), Crabgrass, Large","large crabgrass; 62 g ai/ha, preemergence",100
same,"Plant response rating, Crabgrass, Large",large crabgrass; [11],100
same,"Plant response rating, Crabgrass, Large","large crabgrass; 250 g ai/ha, scale 0 to 100 (0 no effect, 100 complete control), visual, 12 to 14 days, preemergence",100
same,"Crabgrass, Large plant response rating","large crabgrass; Postemergence, scale 0 to 100",100
same,"Plant response rating, Crabgrass, Large",large crabgrass; [12],70
same,"Crabgrass, Large plant response rating",large crabgrass; [13],100
same,"Plant response rating, Crabgrass, Large",large crabgrass; [14],70
same,"Plant response rating, Crabgrass, Large",large crabgrass; [15],10
same,"Plant response rating (0 = no effect, 100 = complete control), Goosegrass","goosegrass; 62 g ai/ha, preemergence",90
same,"Plant response rating, Goosegrass",goosegrass; [11],100
same,Goosegrass plant response rating,"goosegrass; Postemergence, scale 0 to 100",70
same,"Plant response rating, Goosegrass",goosegrass; [12],70
same,Goosegrass plant response rating,goosegrass; [13],100
same,"Plant response rating, Goosegrass",goosegrass; [14],40
same,"Plant response rating, Goosegrass",goosegrass; [15],20
same,"Plant response rating (0 = no effect, 100 = complete control), Kochia","kochia; 62 g ai/ha, preemergence",100
same,"Plant response rating, Kochia",kochia; [11],100
same,Kochia plant response rating,"kochia; Postemergence, scale 0 to 100",90
same,"Plant response rating, Kochia",kochia; [12],90
same,Kochia plant response rating,kochia; [13],100
same,"Plant response rating, Kochia",kochia; [14],80
same,"Plant response rating, Kochia",kochia; [15],60
same,"Plant response rating (0 = no effect, 100 = complete control), Lambsquarters","lambsquarters; 62 g ai/ha, preemergence",100
same,"Plant response rating, Lambsquarters",lambsquarters; [11],100
same,Lambsquarters plant response rating,"lambsquarters; Postemergence, scale 0 to 100",100
same,"Plant response rating, Lambsquarters",lambsquarters; [12],100
same,Lambsquarters plant response rating,lambsquarters; [13],100
same,"Plant response rating, Lambsquarters",lambsquarters; [14],100
same,"Plant response rating, Lambsquarters",lambsquarters; [15],70
same,"Plant response rating (0 = no effect, 100 = complete control), Pigweed","pigweed [2]; 62 g ai/ha, preemergence",100
same,"Plant response rating, Pigweed",pigweed [2]; [11],100
same,Pigweed plant response rating,"pigweed [2]; Postemergence, scale 0 to 100",100
same,"Plant response rating, Pigweed",pigweed [2]; [12],100
same,Pigweed plant response rating,pigweed [2]; [13],100
same,"Plant response rating, Pigweed",pigweed [2]; [14],100
same,"Plant response rating, Pigweed",pigweed [2]; [15],60
same,"Plant response rating (0 = no effect, 100 = complete control), Ragweed","common ragweed; 62 g ai/ha, preemergence",20
same,"Plant response rating, Ragweed",common ragweed; [11],20
same,Ragweed plant response rating,common ragweed; [13],90
CC(=NO)c1cccc(NC(=O)c2cc(C(C)(C)C)nn2CC(F)(F)F)c1 [Compound 112],Morningglory plant response rating,morningglory; [3],20
same,"Plant response rating, Morningglory",morningglory; [4],15
same,Morningglory plant response rating,morningglory; [5],20
same,Morningglory plant response rating,morningglory; [6],45
same,"Plant response rating, Pigweed",pigweed [1]; [7],90
same,"Plant response rating, Pigweed",pigweed [1]; [8],100
same,Pigweed plant response rating,pigweed [1]; [9],90
same,"Plant response rating, Pigweed",pigweed [1]; [10],0
same,"Plant response rating, Oat, Wild",wild oat,40
same,"Oat, Wild plant response rating",wild oat,40
same,"Crabgrass, Large plant response rating","large crabgrass; Postemergence, scale 0 to 100",30
same,"Plant response rating, Crabgrass, Large",large crabgrass; [12],30
same,"Plant response rating, Crabgrass, Large",large crabgrass; [14],10
same,"Plant response rating, Crabgrass, Large",large crabgrass; [15],0
same,Goosegrass plant response rating,"goosegrass; Postemergence, scale 0 to 100",30
same,"Plant response rating, Goosegrass",goosegrass; [12],30
same,"Plant response rating, Goosegrass",goosegrass; [14],20
same,"Plant response rating, Goosegrass",goosegrass; [15],20
same,Kochia plant response rating,"kochia; Postemergence, scale 0 to 100",80
same,"Plant response rating, Kochia",kochia; [14],20
same,"Plant response rating, Kochia",kochia; [15],0
same,Lambsquarters plant response rating,"lambsquarters; Postemergence, scale 0 to 100",100
same,"Plant response rating, Lambsquarters",lambsquarters; [12],100
same,"Plant response rating, Lambsquarters",lambsquarters; [14],20
same,"Plant response rating, Lambsquarters",lambsquarters; [15],20
same,Pigweed plant response rating,"pigweed [2]; Postemergence, scale 0 to 100",100
same,"Plant response rating, Pigweed",pigweed [2]; [12],100
same,"Plant response rating, Pigweed",pigweed [2]; [14],60
same,"Plant response rating, Pigweed",pigweed [2]; [15],10
same,Ragweed plant response rating,"common ragweed; Postemergence, scale 0 to 100",70
same,"Plant response rating, Ragweed",common ragweed; [12],70
same,"Plant response rating, Ragweed",common ragweed; [14],0
same,"Plant response rating, Ragweed",common ragweed; [15],0
